This assay relates to PANC1-GFPcODC cells. Kind of assay: Trypan blue exclusion, PANC1-GFPcODC cells. In kind it is cell-based, human. As to conditions: 4-day treatment; 20 μM cisplatin, 10 nM FL118, or both. The text has this:
Generation of A2780-GFPcODC, A2780CP-GFPcODC and PANC1GFPcODC cells and fluorescence microscopy to detect stem-like and drug resistant green cells. The retroviral expression vector pQCXIN-ZsGreen-cODC (ornithine decarboxylase), containing a green fluorescence marker, was kindly provided by Dr. Frank Pajonk (Vlashi E, et al., In vivo imaging, tracking, and targeting of cancer stem cells. J Natl Cancer Inst. 2009; 101: 350-9). The retroviral particles collected from packaging cells that transfected with the above vector were infected into A2780, A2780CP and PANC1 cells, respectively. The transfected cell pool was used for experiments. […] Cell images were acquired digitally using the Olympus IX73 Inverted Score s (Olympus). Percentages of living cells were obtained from the average of the total cells counted from 10 microscopic fields.
Next, we applied the same system to generate pancreatic cancer PANC1-GFPcODC cells.

Results on one compound are retold here after US20250092058A1 (priority 2018, published 2025).

In the case of `CC[C@@]1(O)C(=O)OCc2c1cc1n(c2=O)Cc2cc3cc4c(cc3nc2-1)OCO4` [FL118, 10,11-methylenedioxy-camptothecin], the cell death is listed as ~18%.
